Experimental data from paper PMC12203311, “Design, synthesis, in silico and in vitro evaluation of pyrrole–indole hybrids as dual tubulin and aromatase inhibitors with potent anticancer activities” (RSC Advances, 2025).

Legend:
[1] = tested on: CCRF-CEM; experiment: NCI60 five-dose screen; type: cell-based; details: Homo sapiens, leukemia; for CC50: read-out: LC50 (the source's name)
[2] = tested on: HL-60 (TB); experiment: NCI60 five-dose screen; type: cell-based; details: Homo sapiens, leukemia; for CC50: read-out: LC50 (the source's name)
[3] = tested on: RPMI-8226; experiment: NCI60 five-dose screen; type: cell-based; details: Homo sapiens, RPMI-8226, leukemia; for CC50: read-out: LC50 (the source's name)
[4] = tested on: A549/ATCC; experiment: NCI60 five-dose screen; type: cell-based; details: Homo sapiens, NSC lung cancer; for CC50: read-out: LC50 (the source's name)
[5] = tested on: HOP-62; experiment: NCI60 five-dose screen; type: cell-based; details: Homo sapiens, HOP-62, NSC lung cancer; for CC50: read-out: LC50 (the source's name)
[6] = tested on: HOP-92; experiment: NCI60 five-dose screen; type: cell-based; details: Homo sapiens, HOP-92, NSC lung cancer; for CC50: read-out: LC50 (the source's name)
[7] = tested on: NCI-H226; experiment: NCI60 five-dose screen; type: cell-based; details: Homo sapiens, NCI-H226, NSC lung cancer; for CC50: read-out: LC50 (the source's name)
[8] = tested on: NCI-H23; experiment: NCI60 five-dose screen; type: cell-based; details: Homo sapiens, NCI-H23, NSC lung cancer; for CC50: read-out: LC50 (the source's name)
[9] = tested on: NCI-H460; experiment: NCI60 five-dose screen; type: cell-based; details: Homo sapiens, NCI-H460, NSC lung cancer; for CC50: read-out: LC50 (the source's name)
[10] = tested on: COLO 205; experiment: NCI60 five-dose screen; type: cell-based, human; details: Homo sapiens; for CC50: COLO 205, COLO 205, colon cancer, read-out: LC50 (the source's name); for GI50: COLO 205, colon cancer
[11] = tested on: HCT-15; experiment: NCI60 five-dose screen; type: cell-based; details: Homo sapiens, HCT-15, colon cancer; for CC50: read-out: LC50 (the source's name)
[12] = tested on: SF-268; experiment: NCI60 five-dose screen; type: cell-based; details: Homo sapiens, SF-268, CNS cancer; for CC50: read-out: LC50 (the source's name)
[13] = tested on: SF-295; experiment: NCI60 five-dose screen; type: cell-based; details: Homo sapiens, SF-295, CNS cancer; for CC50: read-out: LC50 (the source's name)
[14] = tested on: LOX IMVI; experiment: NCI60 five-dose screen; type: cell-based; details: Homo sapiens, melanoma; for CC50: read-out: LC50 (the source's name)
[15] = tested on: MALME-3M; experiment: NCI60 five-dose screen; type: cell-based; details: Homo sapiens, melanoma; for CC50: read-out: LC50 (the source's name)
[16] = tested on: MDA-MB-435; experiment: NCI60 five-dose screen; type: cell-based, human; details: Homo sapiens; for CC50: MDA-MB-435, MDA-MB-435, melanoma, read-out: LC50 (the source's name); for GI50: MDA-MB-435, melanoma
[17] = tested on: SK-MEL-28; experiment: NCI60 five-dose screen; type: cell-based; details: Homo sapiens, SK-MEL-28, melanoma; for CC50: read-out: LC50 (the source's name)
[18] = tested on: UACC-257; experiment: NCI60 five-dose screen; type: cell-based; details: Homo sapiens, UACC-257, melanoma; for CC50: read-out: LC50 (the source's name)
[19] = tested on: OVCAR-8; experiment: NCI60 five-dose screen; type: cell-based; details: Homo sapiens, OVCAR-8, ovarian cancer; for CC50: read-out: LC50 (the source's name)
[20] = tested on: SK-OV-3; experiment: NCI60 five-dose screen; type: cell-based; details: Homo sapiens, SK-OV-3, ovarian cancer; for CC50: read-out: LC50 (the source's name)
[21] = tested on: 786-0; experiment: NCI60 five-dose screen; type: cell-based; details: Homo sapiens, 786-0, renal cancer; for CC50: read-out: LC50 (the source's name)
[22] = tested on: A498; experiment: NCI60 five-dose screen; type: cell-based; details: Homo sapiens, A498, renal cancer; for CC50: read-out: LC50 (the source's name)
[23] = tested on: CAKI-1; experiment: NCI60 five-dose screen; type: cell-based; details: Homo sapiens, CAKI-1, renal cancer; for CC50: read-out: LC50 (the source's name)
[24] = tested on: RXF 393; experiment: NCI60 five-dose screen; type: cell-based; details: Homo sapiens, RXF 393, renal cancer; for CC50: read-out: LC50 (the source's name)
[25] = tested on: SN12C; experiment: NCI60 five-dose screen; type: cell-based; details: Homo sapiens, renal cancer; for CC50: read-out: LC50 (the source's name)
[26] = tested on: UO-31; experiment: NCI60 five-dose screen; type: cell-based; details: Homo sapiens, UO-31, renal cancer; for CC50: read-out: LC50 (the source's name)
[27] = tested on: PC-3; experiment: NCI60 five-dose screen; type: cell-based; details: Homo sapiens, PC-3, prostate cancer; for CC50: read-out: LC50 (the source's name)
[28] = tested on: BT-549; experiment: NCI60 five-dose screen; type: cell-based; details: Homo sapiens, BT-549, breast cancer; for CC50: read-out: LC50 (the source's name)
[29] = tested on: MDA-MB-468; experiment: NCI60 five-dose screen; type: cell-based; details: Homo sapiens, MDA-MB-468, breast cancer; for CC50: read-out: LC50 (the source's name)
[30] = Cytotoxicity MTT assay, L929; type: cell-based, mouse; details: mouse, L929 fibroblast cells; MTT, 48 hours
In short: (§1)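 10 000 cells/well, overnight attachment; compound 48 h in DMEM/10% FBS, 37 °C, 5% CO2. MTT 0.5 mg mL^−1, 3 h; formazan in DMSO; A570. % viability vs DMSO vehicle.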

[31] = tested on: L929 normal mouse fibroblast cell line; experiment: Cytotoxicity MTT assay, L929; type: cell-based; details: IC50 (L929)/IC50 (T47D)
In short: as §1

## CCc1cc[nH]c1/C=N/NC(=O)c1[nH]c2ccc(Br)cc2c1-c1ccccc1 [Derivative 3u, (E)-5-Bromo-N′-((3-ethyl-1H-pyrrol-2-yl)methylene)-3-phenyl-1H-indole-2-carbohydrazide]
[1]
  GI50: 2.35 µM
  CC50: 63.8 µM
[2]
  GI50: 2.03 µM
  CC50: 24.3 µM
[3]
  GI50: 2.04 µM
  CC50: 78.6 µM
[4]
  GI50: 2 µM
  CC50: 41.5 µM
[5]
  GI50: 3.77 µM
  CC50: 45.8 µM
[6]
  GI50: 3.8 µM
  CC50: 44.3 µM
[7]
  GI50: 1.97 µM
  CC50: 37.7 µM
[8]
  GI50: 2.66 µM
  CC50: 38.3 µM
[9]
  GI50: 1.23 µM
  CC50: 36.7 µM
[10]
  CC50: 41.3 µM
  GI50: 2.96 µM
[11]
  GI50: 1.03 µM
  CC50: 38.8 µM
[12]
  GI50: 2.86 µM
  CC50: 42.7 µM
[13]
  GI50: 2.29 µM
  CC50: 37.1 µM
[14]
  GI50: 2.42 µM
  CC50: 32.3 µM
[15]
  GI50: 3.5 µM
  CC50: 40 µM
[16]
  CC50: 41.6 µM
  GI50: 4.12 µM
[17]
  GI50: 3.46 µM
  CC50: 40.1 µM
[18]
  GI50: 3.78 µM
  CC50: 40.8 µM
[19]
  GI50: 3.02 µM
  CC50: 39.8 µM
[20]
  GI50: 2.59 µM
  CC50: 42.4 µM
[21]
  GI50: 3.51 µM
  CC50: 44.3 µM
[22]
  GI50: 1.45 µM
  CC50: 55.4 µM
[23]
  GI50: 6.04 µM
  CC50: 45.3 µM
[24]
  GI50: 1.19 µM
  CC50: 18.7 µM
[25]
  GI50: 2.26 µM
  CC50: 34 µM
[26]
  GI50: 2.94 µM
  CC50: 39.7 µM
[27]
  GI50: 3.09 µM
  CC50: 47.6 µM
[28]
  GI50: 2.7 µM
  CC50: 34.2 µM
[29]
  GI50: 2.72 µM
  CC50: 32.1 µM
[30]
  IC50 at 48 h: 12.2 ± 0.7 µM
[31]
  Selectivity index (SI): 1.97

## Cc1cc(C)c(/C=N/NC(=O)c2[nH]c3ccc(Br)cc3c2-c2ccccc2)[nH]1 [Derivative 3c, (E)-5-Bromo-N′-((3,5-dimethyl-1H-pyrrol-2-yl)methylene)-3-phenyl-1H-2-carbohydrazide]
[1]
  GI50: 3.07 µM
  CC50: > 100 µM
[2]
  GI50: 2.4 µM
  CC50: > 100 µM
[3]
  GI50: 2.43 µM
  CC50: > 100 µM
[4]
  GI50: 3.82 µM
  CC50: 45.4 µM
[5]
  GI50: 2.97 µM
  CC50: 69.3 µM
[6]
  GI50: 2.61 µM
  CC50: 43.5 µM
[7]
  GI50: 2.58 µM
  CC50: 34.4 µM
[8]
  GI50: 2.59 µM
  CC50: 35.2 µM
[9]
  GI50: 2.83 µM
  CC50: 37.9 µM
[10]
  CC50: 52.3 µM
  GI50: 3.25 µM
[11]
  GI50: 2.91 µM
  CC50: 37.2 µM
[12]
  GI50: 2.98 µM
  CC50: 53.2 µM
[13]
  GI50: 2.76 µM
  CC50: 29.5 µM
[14]
  GI50: 2.43 µM
  CC50: 30.2 µM
[15]
  GI50: 3.16 µM
  CC50: 38.5 µM
[16]
  CC50: 34 µM
  GI50: 2.84 µM
[17]
  GI50: 3.81 µM
  CC50: 38.8 µM
[18]
  GI50: 4.35 µM
  CC50: 49.2 µM
[19]
  GI50: 3.1 µM
  CC50: 45 µM
[20]
  GI50: 6.81 µM
  CC50: 70.8 µM
[21]
  GI50: 5.19 µM
  CC50: 63.9 µM
[22]
  GI50: 8.25 µM
  CC50: 46.9 µM
[23]
  GI50: 3.17 µM
  CC50: 39.1 µM
[24]
  GI50: 2.26 µM
  CC50: 35 µM
[25]
  GI50: 2.58 µM
  CC50: 32.3 µM
[26]
  GI50: 1.77 µM
  CC50: 33.8 µM
[27]
  GI50: 2.06 µM
  CC50: 47.6 µM
[28]
  GI50: 5.04 µM
  CC50: 47.9 µM
[29]
  GI50: 2 µM
  CC50: 26.4 µM
[30]
  IC50 at 48 h: 29.5 ± 12.6 µM
[31]
  Selectivity index (SI): 2.54

## O=C(N/N=C/c1ccc[nH]1)c1[nH]c2ccc(Br)cc2c1-c1ccccc1 [Derivative 3a, (E)-N′-((1H-Pyrrol-2-yl)methylene)-5-bromo-3-phenyl-1H-indole-2-carbohydrazide]
[1]
  GI50: 0.345 µM
  CC50: > 100 µM
[2]
  GI50: 0.242 µM
  CC50: > 100 µM
[3]
  GI50: 0.337 µM
  CC50: > 100 µM
[4]
  GI50: 0.357 µM
  CC50: 33.6 µM
[5]
  GI50: 0.684 µM
  CC50: 32.6 µM
[6]
  GI50: 0.992 µM
  CC50: 26.4 µM
[7]
  GI50: 0.323 µM
  CC50: 23.3 µM
[8]
  GI50: 0.504 µM
  CC50: 37.7 µM
[9]
  GI50: 0.318 µM
  CC50: 12.5 µM
[10]
  CC50: 35.1 µM
  GI50: 0.261 µM
[11]
  GI50: 0.269 µM
  CC50: 32.3 µM
[12]
  GI50: 0.995 µM
  CC50: 56.4 µM
[13]
  GI50: 0.224 µM
  CC50: 23.2 µM
[14]
  GI50: 0.244 µM
  CC50: 19 µM
[15]
  GI50: 0.32 µM
  CC50: 30.9 µM
[16]
  GI50: 0.105 µM
[17]
  GI50: 0.488 µM
  CC50: 37.4 µM
[18]
  GI50: 0.647 µM
  CC50: 47.1 µM
[19]
  GI50: 0.323 µM
  CC50: 6.55 µM
[20]
  GI50: 0.702 µM
  CC50: 31.8 µM
[21]
  GI50: 0.791 µM
  CC50: 23.9 µM
[22]
  GI50: 2.57 µM
  CC50: 41.6 µM
[23]
  GI50: 0.257 µM
  CC50: 30.9 µM
[24]
  GI50: 0.339 µM
  CC50: 35.1 µM
[25]
  GI50: 0.371 µM
  CC50: 3.97 µM
[26]
  GI50: 0.431 µM
  CC50: 20.2 µM
[27]
  GI50: 0.344 µM
  CC50: 29.6 µM
[28]
  GI50: 0.375 µM
  CC50: 6.39 µM
[29]
  GI50: 0.209 µM
  CC50: 42.1 µM
[30]
  IC50 at 48 h: 26.3 ± 14.5 µM
[31]
  Selectivity index (SI): 16.4
